The target of this experiment is T1, PDE4B2 (Homo sapiens, UniProt Q07343).
T1 construct: made in house; host or cells: SF21 insect cells (baculovirus prepared in SF9 cells, pCR-Bac vector)
Briefly: Inhibition of PDE4 activity, [3H]cAMP SPA enzyme assay with recombinant PDE4B2. In kind it is biochemical. To be noted: recombinant PDE4B2 (GB no. M97515) expressed in SF21 insect cells; 0.5 μM cAMP; 15 min at 37° C.; read-out: PDE4 Inhibition [measured as −logIC50 (mol/l)] (converted). As for the experimental part:
Method for Measuring Inhibition of PDE4 Activities
The PDE4B2 (GB no. M97515) was a gift of Prof. M. Conti (Stanford University, USA). It was amplified from the original plasmid (pCMV5) via PCR with primers Rb9 (5′-[…]-3′) and Rb10 (5′-[…]-3′) and cloned into the pCR-Bac vector (Invitrogen, Groningen, NL).
The recombinant baculovirus was prepared by means of homologous recombination in SF9 insect cells. The expression plasmids were co-transfected with Bac-N-Blue (Invitrogen, Groningen, NL) or BaculoGold DNA (Pharmingen, Hamburg) using a standard protocol (Pharmingen, Hamburg). Wt virus-free recombinant virus supernatants were selected using plaque assay methods. After that, high-titre virus supernatants were prepared by amplifying 3 times. PDE4B2 was expressed in SF21 cells by infecting 2×10^6 cells/ml with an MOI (multiplicity of infection) between 1 and 10 in serum-free SF900 medium (Life Technologies, Paisley, UK). The cells were cultured at 28° C. for 48-72 hours, after which they were pelleted for 5-10 min at 1000 g and 4° C.
The SF21 insect cells were resuspended, at a concentration of approx. 10^7 cells/ml, in ice-cold (4° C.) homogenization buffer (20 mM Tris, pH 8.2, containing the following additions: 140 mM NaCl, 3.8 mM KCl, 1 mM EGTA, 1 mM MgCl2, 10 mM p-mercaptoethanol, 2 mM benzamidine, 0.4 mM Pefablock, 10 μM leupeptin, 10 μM pepstatin A, 5 μM trypsin inhibitor) and disrupted by ultrasonication. The homogenate was then centrifuged for 10 min at 1000×g and the supernatant was stored at 80° C. until subsequent use (see below). The protein content was determined by the Bradford method (BioRad, Munich) using BSA as the standard.
PDE4B2 activity was inhibited by the said compounds in a modified SPA (scintillation proximity assay) test, supplied by Amersham Biosciences (see procedural instructions “phosphodiesterase [3H]cAMP SPA enzyme assay, code TRKQ 7090”), carried out in 96-well microtitre plates (MTP's). The test volume is 100 μl and contains 20 mM Tris buffer (pH 7.4), 0.1 mg of BSA (bovine serum albumin)/ml, 5 mM Mg^2+, 0.5 μM cAMP (including about 50,000 cpm of [3H]cAMP), 1 μl of the respective substance dilution in DMSO and sufficient recombinant PDE (1000×g supernatant, see above) to ensure that 10-20% of the cAMP is converted under the said experimental conditions. […] After a preincubation of 5 min at 37° C., the reaction is started by adding the substrate (cAMP) and the assays are incubated for a further 15 min; after that, they are stopped by adding SPA beads (50 μl). In accordance with the manufacturer's instructions, the SPA beads had previously been resuspended in water, but were then diluted 1:3 (v/v) in water; the diluted solution also contains 3 mM IBMX to ensure a complete PDE activity stop. After the beads have been sedimented (>30 min), the MTP's are analyzed in commercially available […] detection devices. The corresponding IC50 values of the compounds for the inhibition of PDE activities are determined from the concentration-effect curves by means of non-linear regression.
The inhibitory values determined for the compounds according to the invention follow from the following Table 1, in which the numbers of the compounds correspond to the numbers of the examples.

T1 sequence (Q07343 1-564 isoform Q07343-2): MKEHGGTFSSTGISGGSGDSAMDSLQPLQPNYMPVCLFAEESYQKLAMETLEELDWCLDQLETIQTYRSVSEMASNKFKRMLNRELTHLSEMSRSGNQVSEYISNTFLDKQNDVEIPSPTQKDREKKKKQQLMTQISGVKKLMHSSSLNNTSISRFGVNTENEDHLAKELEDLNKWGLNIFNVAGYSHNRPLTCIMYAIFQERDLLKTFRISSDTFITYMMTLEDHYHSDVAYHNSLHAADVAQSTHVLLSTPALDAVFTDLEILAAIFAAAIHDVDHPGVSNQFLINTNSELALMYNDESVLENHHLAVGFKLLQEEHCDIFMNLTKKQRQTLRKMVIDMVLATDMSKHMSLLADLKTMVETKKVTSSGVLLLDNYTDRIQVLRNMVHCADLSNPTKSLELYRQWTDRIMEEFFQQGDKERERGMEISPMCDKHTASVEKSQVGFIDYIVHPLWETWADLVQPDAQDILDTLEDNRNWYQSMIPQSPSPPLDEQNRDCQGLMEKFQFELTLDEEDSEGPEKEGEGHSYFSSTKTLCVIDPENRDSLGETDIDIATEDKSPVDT

Turning to `CCOc1cc2c(cc1OC)C(c1ccc(C(=O)N3CCN(C)CC3)cc1)=N[C@@H]1CCOC[C@H]21` [Compound 6, 1-[4-((4aR,10aR)-6-Ethoxy-7-methoxy-1,4,4a,10a-tetrahydro-2H-3oxa-10-aza-phenanthren-9-yl)-phenyl-]1-(4-methyl-piperazin-1-yl)-methanone], the IC50 is 20.4 nM.
In the case of `CCOc1cc2c(cc1OC)C(c1ccc(C(=O)N(C(C)C)C(C)C)cc1)=N[C@@H]1CCOC[C@H]21` [Compound 1, 4-((4aR,10aR)-6-Ethoxy-7-methoxy-1,4,4a,10a-tetrahydro-2H-3-oxa-10-aza-phenanthren-9-yl)-N,N-diisopropyl-benzamide], the IC50 is 2.75 nM.
Under `CCOc1cc2c(cc1OC)C(c1ccc(C(=O)O)cc1)=N[C@@H]1CCOC[C@H]21` [Compound 3, 4-((4aR,10aR)-6-Ethoxy-7-methoxy-1,4,4a,10a-tetrahydro-2H-3-oxa-10-aza-phenanthren-9-yl)-benzoic acid] stands 33.9 nM; under `CCOc1cc2c(cc1OC)C(c1ccc(C(=O)N(C)C)cc1)=N[C@@H]1CCOC[C@H]21` [Compound 5, 1-[4-((4aR,10aR)-6-Ethoxy-7-methoxy-1,4,4a,10a-tetrahydro-2H-3-oxa-10-aza-phenanthren-9-yl)]-N,N-dimethyl-benzamide], 57.5 nM.
In the case of `CCOc1cc2c(cc1OC)C(c1ccc(C(=O)N3CCOCC3)cc1)=N[C@@H]1CCOC[C@H]21` [Compound 4, 1-[4((4aR,10aR)-6-Ethoxy-7-methoxy-1,4,4a,10a-tetrahydro-2H-3oxa-10-aza-phenanthren-9-yl)-phenyl]-1-morpholin-4-yl-methanone] it was 39.8 nM; in that of `CCOc1cc2c(cc1OC)C(c1ccc(C(=O)OC)cc1)=N[C@@H]1CCOC[C@H]21` [Compound 2, 4-((4aR,10aR)-6-Ethoxy-7-methoxy-1,4,4a,10a-tetrahydro-2H-3-oxa-10-aza-phenanthren-9-yl)-benzoic acid methyl ester], 20 nM.

The record behind these values is US7838521B2, “3-oxa-10-aza-phenanthrenes” (NYCOMED GmbH, priority 2004, dated 2010).
